Reference: patent US20240300932A1, “N-PHENYLIMINE DERIVATIVE AND PREPARATION METHOD AND USE THEREOF” (Guizhou University, priority 2023, published 2024)

Columns and labels:
Assay in all cases: Post-emergence herbicidal activity test (stem and leaf spray, pot culture)
Format in all cases: in vivo
Details in all cases: 3 weeks after spraying
[1] = tested on: Setaria viridis
Method in brief: (§1)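 Pot-grown weeds in loam (pH 7, 1.63% organic matter) were spray-treated on stems and leaves at the 2- to 3-leaf stage with compound in acetone/Tween 80 plus 1.5 liters/ha methyl oleate at 10, 5 or 2.5 g/mu. Fresh-weight growth control was scored 3 weeks later as grades 0–5.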

[2] = tested on: Portulaca oleracea
Method in brief: as §1

[3] = tested on: Abutilon theophrasti
Method in brief: as §1

[4] = tested on: Echinochloa crusgalli
Method in brief: as §1

[5] = tested on: Amaranthus retroflexus
Method in brief: as §1

[6] = tested on: Trifoliumre pensL.
Method in brief: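 Rates of 10, 5 and 2.5 g/mu were applied in a single spray-tower treatment to 2–3-leaf plants, thinned to 10 per pot. Formulation: acetone solution, Tween 80, 1.5 L/ha methyl oleate synergist. Weed response assessed after 3 further greenhouse weeks; mean of three experiments.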

## O=C1C2=C(CCCC2)C(=O)N1c1cc(OCc2nnc(-c3ccccc3F)o2)c(Cl)cc1F [Compound B4]
[1]; dosage 2.5 g/mu
  Post-emergence herbicidal activity, S. viridis (grade): 2 (Grade 2: the growth control rate is greater than or equal to 20% and less than 40%)
[1]; dosage 5 g/mu
  Post-emergence herbicidal activity, S. viridis (grade): 3 (Grade 3: the growth control rate is greater than or equal to 40% and less than 60%)
[1]; dosage 10 g/mu
  Post-emergence herbicidal activity, S. viridis (grade): 4 (Grade 4: the growth control rate is greater than or equal to 60% and less than 85%)
[2]; dosage 2.5 g/mu
  Post-emergence herbicidal activity, P. oleracea (grade): 4 (Grade 4: the growth control rate is greater than or equal to 60% and less than 85%)
[2]; dosage 5 g/mu
  Post-emergence herbicidal activity, P. oleracea (grade): 5 (Grade 5: the growth control rate is greater than or equal to 85%)
[2]; dosage 10 g/mu
  Post-emergence herbicidal activity, P. oleracea (grade): 5 (Grade 5: the growth control rate is greater than or equal to 85%)
[3]; dosage 2.5 g/mu
  Post-emergence herbicidal activity, A. theophrasti (grade): 4 (Grade 4: the growth control rate is greater than or equal to 60% and less than 85%)
[3]; dosage 5 g/mu
  Post-emergence herbicidal activity, A. theophrasti (grade): 5 (Grade 5: the growth control rate is greater than or equal to 85%)
[3]; dosage 10 g/mu
  Post-emergence herbicidal activity, A. theophrasti (grade): 5 (Grade 5: the growth control rate is greater than or equal to 85%)
[4]; dosage 2.5 g/mu
  Post-emergence herbicidal activity, E. crusgalli (grade): 1 (Grade 1: the growth control rate is greater than or equal to 5% and less than 20%)
[4]; dosage 5 g/mu
  Post-emergence herbicidal activity, E. crusgalli (grade): 2 (Grade 2: the growth control rate is greater than or equal to 20% and less than 40%)
[4]; dosage 10 g/mu
  Post-emergence herbicidal activity, E. crusgalli (grade): 3 (Grade 3: the growth control rate is greater than or equal to 40% and less than 60%)
[5]; dosage 2.5 g/mu
  Post-emergence herbicidal activity, A. retroflexus (grade): 5 (Grade 5: the growth control rate is greater than or equal to 85%)
[5]; dosage 5 g/mu
  Post-emergence herbicidal activity, A. retroflexus (grade): 5 (Grade 5: the growth control rate is greater than or equal to 85%)
[5]; dosage 10 g/mu
  Post-emergence herbicidal activity, A. retroflexus (grade): 5 (Grade 5: the growth control rate is greater than or equal to 85%)
[6]; dosage 2.5 g/mu
  Post-emergence herbicidal activity, Trifoliumre pensL. (grade): 5 (Grade 5: the growth control rate is greater than or equal to 85%)
[6]; dosage 5 g/mu
  Post-emergence herbicidal activity, Trifoliumre pensL. (grade): 5 (Grade 5: the growth control rate is greater than or equal to 85%)
[6]; dosage 10 g/mu
  Post-emergence herbicidal activity, Trifoliumre pensL. (grade): 5 (Grade 5: the growth control rate is greater than or equal to 85%)

## O=C1C2=C(CCCC2)C(=O)N1c1cc(OCc2nnc(-c3ccccc3Cl)o2)c(Cl)cc1F [Compound B5]
[1]; dosage 2.5 g/mu
  Post-emergence herbicidal activity, S. viridis (grade): 2 (Grade 2: the growth control rate is greater than or equal to 20% and less than 40%)
[1]; dosage 5 g/mu
  Post-emergence herbicidal activity, S. viridis (grade): 3 (Grade 3: the growth control rate is greater than or equal to 40% and less than 60%)
[1]; dosage 10 g/mu
  Post-emergence herbicidal activity, S. viridis (grade): 4 (Grade 4: the growth control rate is greater than or equal to 60% and less than 85%)
[2]; dosage 2.5 g/mu
  Post-emergence herbicidal activity, P. oleracea (grade): 5 (Grade 5: the growth control rate is greater than or equal to 85%)
[2]; dosage 5 g/mu
  Post-emergence herbicidal activity, P. oleracea (grade): 5 (Grade 5: the growth control rate is greater than or equal to 85%)
[2]; dosage 10 g/mu
  Post-emergence herbicidal activity, P. oleracea (grade): 5 (Grade 5: the growth control rate is greater than or equal to 85%)
[3]; dosage 2.5 g/mu
  Post-emergence herbicidal activity, A. theophrasti (grade): 5 (Grade 5: the growth control rate is greater than or equal to 85%)
[3]; dosage 5 g/mu
  Post-emergence herbicidal activity, A. theophrasti (grade): 5 (Grade 5: the growth control rate is greater than or equal to 85%)
[3]; dosage 10 g/mu
  Post-emergence herbicidal activity, A. theophrasti (grade): 5 (Grade 5: the growth control rate is greater than or equal to 85%)
[4]; dosage 2.5 g/mu
  Post-emergence herbicidal activity, E. crusgalli (grade): 1 (Grade 1: the growth control rate is greater than or equal to 5% and less than 20%)
[4]; dosage 5 g/mu
  Post-emergence herbicidal activity, E. crusgalli (grade): 2 (Grade 2: the growth control rate is greater than or equal to 20% and less than 40%)
[4]; dosage 10 g/mu
  Post-emergence herbicidal activity, E. crusgalli (grade): 3 (Grade 3: the growth control rate is greater than or equal to 40% and less than 60%)
[5]; dosage 2.5 g/mu
  Post-emergence herbicidal activity, A. retroflexus (grade): 5 (Grade 5: the growth control rate is greater than or equal to 85%)
[5]; dosage 5 g/mu
  Post-emergence herbicidal activity, A. retroflexus (grade): 5 (Grade 5: the growth control rate is greater than or equal to 85%)
[5]; dosage 10 g/mu
  Post-emergence herbicidal activity, A. retroflexus (grade): 5 (Grade 5: the growth control rate is greater than or equal to 85%)
[6]; dosage 2.5 g/mu
  Post-emergence herbicidal activity, Trifoliumre pensL. (grade): 5 (Grade 5: the growth control rate is greater than or equal to 85%)
[6]; dosage 5 g/mu
  Post-emergence herbicidal activity, Trifoliumre pensL. (grade): 5 (Grade 5: the growth control rate is greater than or equal to 85%)
[6]; dosage 10 g/mu
  Post-emergence herbicidal activity, Trifoliumre pensL. (grade): 5 (Grade 5: the growth control rate is greater than or equal to 85%)
